Results published in patent publication US20230242530A1, “8-(AZETIDIN-1-YL)-[1,2,4]TRIAZOLO[1,5-A]PYRIDINYL COMPOUNDS, COMPOSITIONS AND METHODS OF USE THEREOF” (Genentech, Inc., priority 2016, published 2023).

Tests used:
[1] = target: T1, isolated recombinant JAK2 kinase domain (Homo sapiens, UniProt O60674); assay: JAK enzyme assay, JAK2 kinase domain (Caliper LabChip); type: biochemical; conditions: 0.2 nM JAK2, ATP 25 μM, Morrison tight binding model
T1 construct: isolated recombinant JAK1 and JAK2 kinase domain
T1 sequence (O60674 849-1124 limits assumed): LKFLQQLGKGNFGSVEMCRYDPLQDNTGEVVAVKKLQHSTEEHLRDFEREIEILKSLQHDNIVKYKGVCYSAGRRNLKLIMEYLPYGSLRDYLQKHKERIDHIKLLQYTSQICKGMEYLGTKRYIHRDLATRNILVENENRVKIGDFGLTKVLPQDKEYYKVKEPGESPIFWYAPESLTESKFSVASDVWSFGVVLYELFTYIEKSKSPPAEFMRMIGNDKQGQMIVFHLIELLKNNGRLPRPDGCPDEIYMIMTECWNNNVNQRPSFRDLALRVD
Procedure, shortened: (§1)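 Recombinant kinase domains phosphorylated a 5-carboxyfluorescein-labelled JAK3-derived peptide for 30 min at 22 °C, and the reaction was stopped with EDTA (50 mM final). Product fraction was measured by Caliper LabChip mobility shift. Ki came from Morrison tight-binding fits corrected for ATP competition (Ki=Ki,app/(1+[ATP]/Km,app)).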

[2] = test system: JAK1-dependent STAT6 phosphorylation downstream of IL-13 stimulation in BEAS-2B cells; assay: JAK1 pathway assay in cell lines: IL-13 p-STAT6 BEAS-2B; type: cell-based; conditions: BEAS-2B human bronchial epithelial cells, 1 hr compound, IL-13 15 min, MSD readout
Procedure, shortened: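 BEAS-2B cells plated a day ahead in complete growth medium; compounds added 1 hr at 37 °C (0.2% DMSO final), then IL-13 at lot-specific EC90 for 15 min at 37 °C. Phospho-STAT6 in lysates measured by MSD; EC50 is 50% inhibition relative to DMSO control.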

[3] = target: T2, isolated recombinant JAK1 kinase domain (Homo sapiens, UniProt P23458); assay: JAK enzyme assay, JAK1 kinase domain (Caliper LabChip); type: biochemical; conditions: 1.5 nM JAK1, ATP 25 μM, Morrison tight binding model
T2 construct: isolated recombinant JAK1 and JAK2 kinase domain
T2 sequence (P23458 875-1153 limits assumed): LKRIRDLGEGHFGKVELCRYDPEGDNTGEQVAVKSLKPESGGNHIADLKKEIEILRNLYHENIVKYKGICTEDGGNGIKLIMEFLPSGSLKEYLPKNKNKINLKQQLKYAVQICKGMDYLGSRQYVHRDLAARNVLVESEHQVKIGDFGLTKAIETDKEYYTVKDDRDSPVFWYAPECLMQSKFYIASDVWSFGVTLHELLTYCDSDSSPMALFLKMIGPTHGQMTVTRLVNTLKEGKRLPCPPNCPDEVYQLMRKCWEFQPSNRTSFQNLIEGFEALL
Procedure, shortened: as §1

| Compound | Ki [1] [nM] | EC50 [2] [nM] | Ki [3] [nM] |
| --- | --- | --- | --- |
| Cn1cc(Nc2nc3c(N4CC(CC#N)(n5cc(OC(F)F)cn5)C4)cccn3n2)cn1 [Example 145, 2-[3-[4-(difluoromethoxy)pyrazol-1-yl]-1-[2-[(l-methylpyrazol-4-yl)amino]-[1,2,4]triazolo[1,5-a]pyridin-8-yl]azetidin-3-yl]acetonitrile] | 0.3 | 6 | 0.2 |
| N#CCC1(n2cc(OC(F)F)cn2)CN(c2cccn3nc(Nc4cn[nH]c4)nc23)C1 [Example 146, 2-[3-[4-(difluoromethoxy)pyrazol-1-yl]-1-[2-(1H-pyrazol-4-ylamino)-[1,2,4]triazolo[1,5-a]pyridin-8-yl]azetidin-3-yl]acetonitrile] | 0.3 | 7 | 0.2 |
| CSc1cnn(C2(CC#N)CN(c3cccn4nc(Nc5cnn(C)c5)nc34)C2)c1 [Example 147, 2-[1-[2-[(1-methylpyrazol-4-yl)amino]-[1,2,4]triazolo[1,5-a]pyridin-8-yl]-3-(4-methylsulfanylpyrazol-1-yl)azetidin-3-yl]acetonitrile] | 0.6 | 10 | 0.3 |
| CCc1cnn(C2(CC#N)CN(c3cccn4nc(Nc5cnn(CC(F)F)c5)nc34)C2)c1 [Example 148, 2-[1-[2-[[1-(2,2-difluoroethyl)pyrazol-4-yl]amino]-[1,2,4]triazolo[1,5-a]pyridin-8-yl]-3-(4-ethylpyrazol-1-yl)azetidin-3-yl]acetonitrile] | 0.4 | 8 | 0.1 |
| N#CCC1(n2cc(CCF)cn2)CN(c2cccn3nc(Nc4cn[nH]c4)nc23)C1 [Example 149, 2-[3-[4-(2-fluoroethyl)pyrazol-1-yl]-1-[2-(1H-pyrazol-4-ylamino)-[1,2,4]triazolo[1,5-a]pyridin-8-yl]azetidin-3-yl]acetonitrile] | 0.6 | 21 | 0.3 |
| N#CCC1(n2cc(OC(F)F)cn2)CN(c2cccn3nc(Nc4cnn(CC(F)F)c4)nc23)C1 [Example 150, 2-[1-[2-[[1-(2,2-difluoroethyl)pyrazol-4-yl]amino]-[1,2,4]triazolo[1,5-a]pyridin-8-yl]-3-[4-(difluoromethoxy)pyrazol-1-yl]azetidin-3-yl]acetonitrile] | 0.2 | 6 | 0.1 |
| N#CCC1(n2cc(SC(F)F)cn2)CN(c2cccn3nc(Nc4cn[nH]c4)nc23)C1 [Example 151, 2-[3-[4-(difluoromethylsulfanyl)pyrazol-1-yl]-1-[2-(1H-pyrazol-4-ylamino)-[1,2,4]triazolo[1,5-a]pyridin-8-yl]azetidin-3-yl]acetonitrile] | 1.4 | 42 | 0.1 |
| CCc1cnn(C2(CC#N)CN(c3cccn4nc(Nc5cnn[nH]5)nc34)C2)c1 [Example 152, 2-(1-(2-((1H-1,2,3-triazol-5-yl)amino)-[1,2,4]triazolo[1,5-a]pyridin-8-yl)-3-(4-ethyl-1H-pyrazol-1-yl)azetidin-3-yl)acetonitrile] | 0.1 | 5 | 0.7 |
